In US12570671B2 (BRISTOL-MYERS SQUIBB COMPANY, priority 2020, dated 2026):

Assays:
Helios = Helios (Homo sapiens, UniProt Q96SW2+Q9UKS7); test: Helios Cellular Degradation Assay (Helios readout); format: cell-based; design: endogenous in cells; host or cells: Jurkat; conditions: Jurkat cells, 72 h incubation, Helios-PE antibody staining, flow cytometry; read-out: Helios Jurkat IC50
Summary of the method: (§1)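 Jurkat cells (80,000/well, RPMI+10% FBS) were treated with compound for 72 h at 37° C. After fixation and permeabilization they were stained with fluorescent antibodies to Helios, Ikaros and Aiolos. Intracellular protein levels were quantified by flow cytometry.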

Ikaros = Ikaros (Homo sapiens, UniProt Q13422+Q96SW2); test: Helios Cellular Degradation Assay (Ikaros readout); format: cell-based; design: endogenous in cells; host or cells: Jurkat; conditions: Jurkat cells, 72 h incubation, Ikaros-Alexa488 antibody staining, flow cytometry; read-out: Ikaros Jurkat IC50
Ikaros, sequence (Q13422 whole entry): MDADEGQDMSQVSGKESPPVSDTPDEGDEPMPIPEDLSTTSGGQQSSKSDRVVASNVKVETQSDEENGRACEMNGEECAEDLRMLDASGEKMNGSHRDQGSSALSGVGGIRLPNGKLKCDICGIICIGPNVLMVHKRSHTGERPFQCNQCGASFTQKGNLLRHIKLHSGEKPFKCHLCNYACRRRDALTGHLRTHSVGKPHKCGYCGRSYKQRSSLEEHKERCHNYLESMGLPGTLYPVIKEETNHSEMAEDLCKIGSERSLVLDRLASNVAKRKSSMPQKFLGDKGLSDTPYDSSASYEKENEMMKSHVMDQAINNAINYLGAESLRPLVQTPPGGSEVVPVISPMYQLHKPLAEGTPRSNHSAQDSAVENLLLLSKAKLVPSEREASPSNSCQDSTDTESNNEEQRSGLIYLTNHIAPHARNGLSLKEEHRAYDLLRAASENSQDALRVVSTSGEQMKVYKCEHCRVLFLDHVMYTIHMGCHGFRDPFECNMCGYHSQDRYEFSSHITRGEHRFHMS
Ikaros, sequence (Q96SW2 whole entry): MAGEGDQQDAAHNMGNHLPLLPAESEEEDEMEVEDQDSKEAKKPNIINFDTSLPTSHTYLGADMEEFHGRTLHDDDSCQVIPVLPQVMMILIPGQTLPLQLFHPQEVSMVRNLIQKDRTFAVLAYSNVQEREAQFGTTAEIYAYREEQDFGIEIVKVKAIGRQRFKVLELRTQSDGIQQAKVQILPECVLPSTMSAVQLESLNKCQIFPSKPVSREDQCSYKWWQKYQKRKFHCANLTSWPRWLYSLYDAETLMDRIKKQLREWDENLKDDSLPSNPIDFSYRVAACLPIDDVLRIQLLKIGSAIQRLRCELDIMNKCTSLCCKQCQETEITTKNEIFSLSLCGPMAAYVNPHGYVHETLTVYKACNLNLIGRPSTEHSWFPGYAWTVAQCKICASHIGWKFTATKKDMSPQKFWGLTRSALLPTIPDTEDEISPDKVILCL
Ikaros, sequence (Q16531 whole entry partner): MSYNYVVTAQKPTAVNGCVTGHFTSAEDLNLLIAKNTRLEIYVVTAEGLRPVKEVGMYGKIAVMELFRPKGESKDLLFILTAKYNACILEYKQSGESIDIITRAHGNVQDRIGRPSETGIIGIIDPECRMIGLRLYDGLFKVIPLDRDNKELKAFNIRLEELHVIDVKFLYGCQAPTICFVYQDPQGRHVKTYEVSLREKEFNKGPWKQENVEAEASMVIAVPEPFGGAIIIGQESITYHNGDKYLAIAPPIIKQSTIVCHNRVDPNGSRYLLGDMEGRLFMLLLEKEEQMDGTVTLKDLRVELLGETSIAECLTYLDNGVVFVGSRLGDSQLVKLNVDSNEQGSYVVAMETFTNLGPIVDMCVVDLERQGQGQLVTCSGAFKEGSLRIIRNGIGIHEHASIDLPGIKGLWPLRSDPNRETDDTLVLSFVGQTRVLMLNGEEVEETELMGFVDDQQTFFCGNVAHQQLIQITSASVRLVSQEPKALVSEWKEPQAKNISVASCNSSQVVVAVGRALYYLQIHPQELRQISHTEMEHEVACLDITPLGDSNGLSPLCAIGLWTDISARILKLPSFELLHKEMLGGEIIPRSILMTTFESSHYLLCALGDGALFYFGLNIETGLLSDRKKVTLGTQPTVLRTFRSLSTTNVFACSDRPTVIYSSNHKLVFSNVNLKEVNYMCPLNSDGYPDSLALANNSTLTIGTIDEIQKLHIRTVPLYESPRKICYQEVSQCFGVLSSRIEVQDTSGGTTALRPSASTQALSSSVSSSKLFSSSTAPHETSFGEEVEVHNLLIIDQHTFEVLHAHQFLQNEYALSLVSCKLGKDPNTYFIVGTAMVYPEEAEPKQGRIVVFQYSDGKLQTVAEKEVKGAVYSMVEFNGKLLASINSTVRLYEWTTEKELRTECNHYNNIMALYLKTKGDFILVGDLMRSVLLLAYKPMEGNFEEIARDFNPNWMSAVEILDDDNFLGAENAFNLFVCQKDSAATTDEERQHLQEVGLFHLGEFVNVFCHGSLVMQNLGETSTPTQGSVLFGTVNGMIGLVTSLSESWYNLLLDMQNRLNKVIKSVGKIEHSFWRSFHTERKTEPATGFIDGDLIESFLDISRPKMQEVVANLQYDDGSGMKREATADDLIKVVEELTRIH
Summary of the method: as §1

Helios, sequence (Q9UKS7 whole entry): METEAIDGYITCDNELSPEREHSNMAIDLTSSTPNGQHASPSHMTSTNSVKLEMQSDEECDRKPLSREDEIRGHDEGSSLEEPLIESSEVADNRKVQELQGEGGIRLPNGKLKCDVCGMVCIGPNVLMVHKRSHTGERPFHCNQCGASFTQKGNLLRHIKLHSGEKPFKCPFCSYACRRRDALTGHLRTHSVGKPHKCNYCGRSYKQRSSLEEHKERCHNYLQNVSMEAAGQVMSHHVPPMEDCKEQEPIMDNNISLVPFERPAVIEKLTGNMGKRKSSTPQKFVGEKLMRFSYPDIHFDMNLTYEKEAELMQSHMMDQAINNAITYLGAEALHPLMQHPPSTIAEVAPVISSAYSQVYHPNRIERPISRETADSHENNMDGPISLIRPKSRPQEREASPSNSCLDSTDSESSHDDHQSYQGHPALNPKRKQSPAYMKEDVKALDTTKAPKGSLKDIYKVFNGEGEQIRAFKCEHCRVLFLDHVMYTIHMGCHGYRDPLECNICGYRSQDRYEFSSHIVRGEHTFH
Helios, sequence (Q96SW2 whole entry): as the sequence (Q96SW2 whole entry) above
Helios, sequence (Q16531 whole entry partner): as the sequence (Q16531 whole entry partner) above

| SMILES | DC50 (Helios) | DC50 (Ikaros) |
| --- | --- | --- |
| CCOc1c(-c2ccc3c(c2)CN([C@H]2CCC(=O)NC2=O)C3=O)nc(N)c2ccccc12 [Example 84, (3S)-3-[5-(1-amino-4-ethoxyisoquinolin-3-yl)-1-oxo-2,3-dihydro-1H-isoindol-2-yl]piperidine-2,6-dione] | 3 nM | ≥ 20000 nM |
| Nc1nc(-c2ccc3c(c2)CN(C2CCC(=O)NC2=O)C3=O)c2nc[nH]c2n1 (stereo not shown) [Example 43, 3-[5-(2-amino-9H-purin-6-yl)-1-oxo-2,3-dihydro-1H-isoindol-2-yl]piperidine-2,6-dione] | > 20000 nM | > 20000 nM |
| O=C1CCC(N2Cc3cc(-c4cc5cc[nH]c5nn4)ccc3C2=O)C(=O)N1 (stereo not shown) [Example 6, 3-(1-oxo-5-{7H-pyrrolo[2,3-c]pyridazin-3-yl}-2,3-dihydro-1H-isoindol-2-yl)piperidine-2,6-dione] | 140 nM | > 20000 nM |
| O=C1CCC(N2Cc3cc(-c4cc5c(cn4)NCC5)ccc3C2=O)C(=O)N1 (stereo not shown) [Example 113, 3-(5-(2,3-dihydro-1H-pyrrolo[2,3-c]pyridin-5-yl)-1-oxoisoindolin-2-yl)piperidine-2,6-dione] | 50 nM | ≥ 10000 nM |
| COc1cccc2c(-c3ccc4c(c3)CN(C3CCC(=O)NC3=O)C4=O)nc(N)cc12 (stereo not shown) [Example 54, 3-[5-(3-Amino-5-methoxyisoquinolin-1-yl)-1-oxo-2,3-dihydro-1H-isoindol-2-yl]piperidine-2,6-dione] | 40 nM | 5000 nM |
| O=C1CCC(N2Cc3cc(-c4ncnc5c4oc4ccccc45)ccc3C2=O)C(=O)N1 (stereo not shown) [Example 3, 3-(5-{8-oxa-3,5-diazatricyclo[7.4.0.0^2,7]trideca-1(9),2,4,6,10,12-hexaen-6-yl}-1-oxo-2,3-dihydro-1H-isoindol-2-yl)piperidine-2,6-dione] | 36 nM | > 20000 nM |
| O=C1CCC(N2Cc3cc(-c4ncc(OCc5ccccc5)c5ccccc45)ccc3C2=O)C(=O)N1 (stereo not shown) [Example 105, 3-(5-(4-(benzyloxy)isoquinolin-1-yl)-1-oxoisoindolin-2-yl)piperidine-2,6-dione] | 140 nM | ≥ 20000 nM |
| Nc1nc(-c2ccc3c(c2)CN([C@H]2CCC(=O)NC2=O)C3=O)cc2ccccc12 [Example 82, (3S)-3-[5-(1-aminoisoquinolin-3-yl)-1-oxo-2,3-dihydro-1H-isoindol-2-yl]piperidine-2,6-dione] | 4 nM | ≥ 20000 nM |
| O=C1CCC(N2Cc3cc(-c4cc(C(=O)NC5CC5)c5ccccc5n4)ccc3C2=O)C(=O)N1 (stereo not shown) [Example 14, N-cyclopropyl-2-[2-(2,6-dioxopiperidin-3-yl)-1-oxo-2,3-dihydro-1H-isoindol-5-yl]quinoline-4-carboxamide] | 400 nM | > 20000 nM |
| Nc1cc(-c2ccc3c(c2)CN(C2CCC(=O)NC2=O)C3=O)nc2ccccc12 (stereo not shown) [Example 8, 3-[5-(4-aminoquinolin-2-yl)-1-oxo-2,3-dihydro-1H-isoindol-2-yl]piperidine-2,6-dione] | 25 nM | > 20000 nM |
| COc1cc(-c2ccc3c(c2)CN(C2CCC(=O)NC2=O)C3=O)nc2ccccc12 (stereo not shown) [Example 12, 3-[5-(4-methoxyquinolin-2-yl)-1-oxo-2,3-dihydro-1H-isoindol-2-yl]piperidine-2,6-dione] | 38 nM | > 20000 nM |
| N#Cc1ccnc(-c2ccc3c(c2)CN(C2CCC(=O)NC2=O)C3=O)c1 (stereo not shown) [Example 110, 2-(2-(2,6-dioxopiperidin-3-yl)-1-oxoisoindolin-5-yl) isonicotinonitrile] | 880 nM | ≥ 10000 nM |
| O=C1CCC(N2Cc3cc(-c4cnc5cc(Cl)ccc5n4)ccc3C2=O)C(=O)N1 (stereo not shown) [Example 18, 3-[5-(6-chloroquinoxalin-2-yl)-1-oxo-2,3-dihydro-1H-isoindol-2-yl]piperidine-2,6-dione] | 120 nM | > 20000 nM |
| O=C1CCC(N2Cc3cc(-c4ccc5cccc(Cl)c5n4)ccc3C2=O)C(=O)N1 (stereo not shown) [Example 34, 3-[5-(8-chloroquinolin-2-yl)-1-oxo-2,3-dihydro-1H-isoindol-2-yl]piperidine-2,6-dione] | 70 nM | > 20000 nM |
| O=C1CCC(N2Cc3cc(-c4nccc(-c5cccnc5)n4)ccc3C2=O)C(=O)N1 (stereo not shown) [Example 72, 3-(1-oxo-5-(4-(pyridin-3-yl)pyrimidin-2-yl)isoindolin-2-yl)piperidine-2,6-dione] | > 20000 nM | > 20000 nM |
| CCOc1c(-c2ccc3c(c2)CN(C2CCC(=O)NC2=O)C3=O)ncc2ccccc12 (stereo not shown) [Example 85, 3-(5-(4-ethoxyisoquinolin-3-yl)-1-oxoisoindolin-2-yl)piperidine-2,6-dione] | 10 nM | 1820 nM |
| CCOC(=O)c1nc2ccccc2nc1-c1ccc2c(c1)CN(C1CCC(=O)NC1=O)C2=O (stereo not shown) [Example 30, ethyl 3-[2-(2,6-dioxopiperidin-3-yl)-1-oxo-2,3-dihydro-1H-isoindol-5-yl]quinoxaline-2-carboxylate] | > 20000 nM | > 20000 nM |

More lines, now with the values ahead:

| DC50 (Helios) | DC50 (Ikaros) | SMILES |
| --- | --- | --- |
| 2830 nM | ≥ 20000 nM | CC(=O)O[C@@H]1CCOc2nc(-c3ccc4c(c3)CN([C@H]3CCC(=O)NC3=O)C4=O)ccc21 [Example 128, (4R)-7-{2-[(3S)-2,6-dioxopiperidin-3-yl]-1-oxo-2,3-dihydro-1H-isoindol-5-yl}-2H,3H,4H-pyrano[2,3-b]pyridin-4-yl acetate] |
| 6400 nM | ≥ 10000 nM | CS(=O)(=O)N1CCN(c2cc(N)nc(-c3ccc4c(c3)CN(C3CCC(=O)NC3=O)C4=O)c2)CC1 (stereo not shown) [Example 185, 3-(5-(6-amino-4-(4-(methylsulfonyl)piperazin-1-yl)pyridin-2-yl)-1-oxoisoindolin-2-yl) piperidine-2,6-dione] |
| 20 nM | ≥ 20000 nM | Cc1cc(N)nc(-c2ccc3c(c2)CN(C2CCC(=O)NC2=O)C3=O)c1 (stereo not shown) [Example 140, 3-(5-(6-amino-4-methylpyridin-2-yl)-1-oxoisoindolin-2-yl)piperidine-2,6-dione] |
| 40 nM | ≥ 20000 nM | N#Cc1nc(-c2ccc3c(c2)CN([C@H]2CCC(=O)NC2=O)C3=O)cc2ccccc12 [Example 125, 3-{2-[(3 S)-2,6-dioxopiperidin-3-yl]-1-oxo-2,3-dihydro-1H-isoindol-5-yl}isoquinoline-1-carbonitrile] |
| 30 nM | ≥ 20000 nM | Nc1cc(Cl)cc(-c2ccc3c(c2)CN(C2CCC(=O)NC2=O)C3=O)n1 (stereo not shown) [Example 165, 3-(5-(6-amino-4-chloropyridin-2-yl)-1-oxoisoindolin-2-yl)piperidine-2,6-dione] |
| 290 nM | ≥ 10000 nM | O=C1CCC(N2Cc3cc(-c4ccc5c(n4)NCCCC5)ccc3C2=O)C(=O)N1 (stereo not shown) [Example 136, 3-(1-oxo-5-{5H,6H,7H,8H,9H-pyrido[2,3-b]azepin-2-yl}-2,3-dihydro-1H-isoindol-2-yl) piperidine-2,6-dione] |
| 50 nM | > 10000 nM | CC(=O)Nc1nc(-c2ccc3c(c2)CN(C2CCC(=O)NC2=O)C3=O)cc(C)c1C (stereo not shown) [Example 167, N-(6-(2-(2,6-dioxopiperidin-3-yl)-1-oxoisoindolin-5-yl)-3,4-dimethylpyridin-2-yl) acetamide] |
| 10 nM | ≥ 10000 nM | Cc1cc(-c2ccc3c(c2)CN(C2CCC(=O)NC2=O)C3=O)nc(N)c1C#N (stereo not shown) [Example 148, 2-amino-6-(2-(2,6-dioxopiperidin-3-yl)-1-oxoisoindolin-5-yl)-4-methylnicotinonitrile] |
| 10 nM | ≥ 20000 nM | O=C1CCC(N2Cc3cc(-c4nc(O)cc5c(Cl)cccc45)ccc3C2=O)C(=O)N1 (stereo not shown) [Example 145, 3-(5-(5-chloro-3-hydroxyisoquinolin-1-yl)-1-oxoisoindolin-2-yl)piperidine-2,6-dione] |
| 1120 nM | ≥ 10000 nM | O=C1CCC(N2Cc3cc(-c4ccc5c(n4)NC(=O)C5)ccc3C2=O)C(=O)N1 (stereo not shown) [Example 114, 3-(1-oxo-5-(2-oxo-2,3-dihydro-1H-pyrrolo[2,3-b]pyridin-6-yl)isoindolin-2-yl)piperidine-2,6-dione] |
| 50 nM | 320 nM | O=C1CCC(N2Cc3cc(-c4cc5[nH]ccc5cn4)ccc3C2=O)C(=O)N1 (stereo not shown) [Example 159, 3-(1-oxo-5-(1H-pyrrolo[3,2-c]pyridin-6-yl)isoindolin-2-yl)piperidine-2,6-dione] |
| 70 nM | ≥ 10000 nM | CC(C)c1cc(-c2ccc3c(c2)CN(C2CCC(=O)NC2=O)C3=O)nc(N)c1C#N (stereo not shown) [Example 178, 2-amino-6-(2-(2,6-dioxopiperidin-3-yl)-1-oxoisoindolin-5-yl)-4-isopropylnicotinonitrile] |
| 100 nM | ≥ 20000 nM | CC(=O)Nc1ccc2c(-c3ccc4c(c3)CN(C3CCC(=O)NC3=O)C4=O)nccc2c1 (stereo not shown) [Example 134, N-{1-[2-(2,6-dioxopiperidin-3-yl)-1-oxo-2,3-dihydro-1H-isoindol-5-yl]isoquinolin-6-yl}acetamide] |
| ≥ 10000 nM | ≥ 10000 nM | Nc1cc(N2CCN(Cc3ccccc3)CC2)cc(-c2ccc3c(c2)CN(C2CCC(=O)NC2=O)C3=O)n1 (stereo not shown) [Example 184, 3-(5-(6-amino-4-(4-benzylpiperazin-1-yl)pyridin-2-yl)-1-oxoisoindolin-2-yl) piperidine-2,6-dione] |
| 80 nM | ≥ 20000 nM | Nc1cc2ccccc2c(-c2ccc3c(c2)CN([C@H]2CCC(=O)NC2=O)C3=O)n1 [Example 123, (S)-3-(5-(3-aminoisoquinolin-1-yl)-1-oxoisoindolin-2-yl)piperidine-2,6-dione] |
